Test results reported in PMC2360244 (British Journal of Cancer, 2007).
Read-outs that look alike come from different tables or passages of the source.

Columns and labels:
[1] = tested on: lung, breast, colon, prostate and ovarian tumour cell lines; assay: cells; details: Homo sapiens, 96 h, read-out: IC50 values, cell proliferation of solid tumour cell lines (range over panel), lung, breast, colon, prostate and ovarian tumour cell lines; 4-day incubation
Description: The effect of HDAC inhibitors on cell proliferation was measured using an MTT (3-(4,5-dimethyl-2-thiazolyl)-2,5-diphenyl-2H-tetrazolium bromide)-based assay (Serva, Heidelberg, Germany). Cells were seeded in Falcon or NUNC 96-well culture plates (Life Technologies, Merelbeke, Belgium) in 100 μl culture medium and allowed to adhere to plastic for 18–48 h. Test compounds were dissolved in DMSO and further dilutions were made in culture medium, with final concentrations of DMSO never exceeding 0.1% (v v^−1), and incubated for 4 days. Proliferation of NSCLC was assessed using Alamar Blue-based assay. Cells were seeded in COSTAR 384-well culture plates in 45 μl culture medium and allowed to adhere to plastic for 24 h. Alamar blue was added after 72 h, with the exception of HCC-15, HCC-44, NCI-H2122 and NCI-H460, where Alamar blue was added after 90 h and OD values were measured at 4 days following compound exposure. Data are presented as mean±s.d. of three independent experiments.

[2] = tested on: tubulin acetylation and Hsp70 in A2780 ovarian carcinoma cells; assay: Western blot of acetylated tubulin and Hsp70 in A2780 cells (HDAC6 readout); format: cell-based, human; details: 24 h, western blot
Description: Human A2780 ovarian carcinoma cells were incubated with the indicated concentrations of HDAC inhibitors. Total cell lysates were prepared and analysed by SDS–PAGE. […] To control for equal loading, blots were stripped and re-probed with mouse monoclonal antiactin IgM (Ab-1, Oncogene Research products, Merck, Darmstadt, Germany). […] Protein–antibody complexes were then visualised by chemiluminescence (Pierce Chemical Co., Perbioscience, Erembodegem, Belgium) or fluorescence (Odyssey) according to manufacturer's instructions.
Total cell lysates were prepared and analysed by SDS–PAGE. Levels of acetylated H3 and tubulin, and of total levels of H3 and tubulin and of p21^waf1, cip1 and Hsp70 and c-raf protein, were detected using rabbit polyclonal and mouse monoclonal antibodies, followed by ECL detection as indicated in the Methods section. To control for equal loading, blots were stripped and re-probed with antibodies against actin and the nuclear protein Lamin B1. A representative experiment out of three is shown.

[3] = tested on: acetylated H3 in A2780 ovarian xenografts; assay: H3 acetylation in A2780 xenograft tumour tissue, immunofluorescence; format: in vivo, mice; details: 40 mpk p.o. once daily, tumours harvested 4 h after dosing, day 2
Description: For immunofluorescent staining of AcH3, cryosections of A2780 ovarian carcinoma were fixed for 2 min in 4% neutral buffered formalin and subsequently for 10 min in ethanol (100%). After blocking with goat immunoglobulin (Jackson Immunoresearch Laboratories, Suffolk, UK) for 60 min, the sections were incubated with anti-AcH3 (Upstate, 1/5000) for 2 h and with goat anti-rabbit CY3-conjugated secondary antibody (1/500 Jackson Immunoresearch Laboratories) for 2 h. For negative controls, primary antibody was omitted. Nuclei were counterstained using Hoechst (1/2000) for 5 min and the cryosections were mounted in glycerin-gelatin. Images were taken using the Zeiss Axioplan 2 & Axiocam, and processed using Photoshop 7.0 and Image Tool Processing Kit. Representative images of each group (n=3) are shown. For TUNEL staining, cells were fixed with 4% paraformaldehyde for 5 min and then incubated for 1 h at 37°C in a solution containing 25 mM Tris, 200 mM sodium cacodylate, 1.25 mg ml^−1 BSA, 1.25 mM CoCl2, 10 mM dATP (Sigma Chemical Company), 2.5 mM fluorescein-dUTP (Amersham Pharmacia Biotech AB) and 50 U ml^−1 TdT (Roche, Vilvoorde, Belgium). Incorporated Fluorescein-dUTP was detected with a sheep antifluorescein peroxidase-conjugated antiserum (Boehringer Mannheim, 1/600, Roche, Vivoorde, Belgium). The peroxidase conjugate was visualised using amino ethylcarbazol. […]

[4] = tested on: A2780 ovarian carcinoma xenograft; assay: A2780 ovarian xenograft, tumour growth; format: in vivo, mice; details: median tumour size at end of study
Description: (§1) All mice used in the in vivo studies were athymic male NMRI nu/nu mice purchased from Janvier (France) and were treated according to the ethical guidelines prescribed by UKCCCR. A2780 ovarian, HCT116 colon and H460 lung carcinoma cells were injected s.c. (10^7 cells per 200 μl) into the inguinal region of Nude mice. […] Tumour size was determined using caliper measurement and tumour volume was determined by using the formula: TV=(a^2 × b)/2 (in which a represents the width and b the length).
(§2) Mice were treated orally once daily (q.d.) between day 4 and 28 (A2780) or between day 4 and 32 (H460 and HCT116). (A) A2780 ovarian tumours were measured at least twice a week throughout the study, and results are represented as the median tumour size, expressed in mm^3, of each individual group (n=10). (B) Mice were treated orally q.d. at the indicated doses. Results are represented as the treated/control values (%) of the median tumour size (n=10) at the end of the study.

[5] = tested on: primary human mammary epithelial cells (HMEC); assay: cells
Description: (§3) Control cells were treated with the combined respective vehicle.

HUVECs = assay: cells; details: Homo sapiens, HUVEC, read-out: IC50, growth of HUVECs
Description: as §3

p21waf1,cip1 promoter = p21waf1,cip1 promoter activity in vivo, A2780-p21waf1,cip1ZsGreen xenograft; design: species or system mice; details: 40 mpk p.o. once, 24 h after dosing
Description: To generate an HDAC inhibitor-responsive p21^waf1,cip1 promoter construct, the –1300 to +88 region of the p21^waf1,cip1 promoter was cloned into pGL3-basic-ZsGreen and stably transfected into A2780 ovarian carcinoma cells ([Belien et al, 2006]). For in vivo analysis of p21^waf1,cip1 promoter activity, A2780-p21^waf1,cip1ZsGreen cells were injected s.c. (10^7 cells per 200 μl) into the inguinal region of Nude mice and caliper-measurable tumours were obtained after 12 days. […] Tumours were collected using transcardial perfusion fixation with 4% paraformaldehyde. Cryosections of 10-μm thickness were mounted on glass slides and air-dried for 30 min at room temperature. Bodipy 558/568-phalloidin staining was performed on whole mounts to visualise actin (background cell staining). ZsGreen fluorescence was evaluated with an Axioplan 2 (Zeiss, Germany) equipped with Epiplan-Neofluar objectives and an Axiocam camera. CD-31 (CY3) immunofluorescent labelling was performed on whole mounts to visualise the endothelium of blood vessels.
(A) Tumours were harvested 4 h after the last dose. Nuclei are stained with Hoechst, while (CY3) immunofluorescent labelling was performed to visualise acetylated H3. Representative sections from […] independent mice are shown. (B) and (C) Tumours were collected after 24 h using transcardial perfusion fixation with 4% paraformaldehyde. […]

[6] = tested on: HCT116 colon carcinoma xenograft; assay: HCT116 colon xenograft, tumour growth; format: in vivo, mice; details: median tumour size at end of study
Description: as §1, §2

In the case of `O=C(NO)c1cnc(N2CCN(S(=O)(=O)c3ccc4ccccc4c3)CC2)nc1` [R306465], the IC50 [1] is reported as 30 to 300 nM, the “concentration at which tubulin acetylation and Hsp70 levels increase” value [2] is reported as 1 µM and the “H3 acetylation in tumour tissue” value [3] is reported as “maximal and homogeneous increase in H3 acetylation”. For the same compound, the “T/C values (%) A2780 ovarian” value ([4]; 10 mpk p.o. q.d. day 4 to 28) was 47%, the “T/C values (%) A2780 ovarian” value ([4]; 20 mpk p.o. q.d. day 4 to 28) was 13% and the “T/C values (%) A2780 ovarian” value ([4]; 40 mpk p.o. q.d. day 4 to 28) was 24%. It also gave an IC50 ([5]; read-out: IC50, primary HMEC proliferation) of 32 ± 9.7 nM, an IC50 ([5]; read-out: IC50, quiescent non-proliferative HMEC cells) of 7820 ± 435 nM and an IC50 (HUVECs) of 186 ± 23 nM. The “p21waf1,cip1 promoter activation (ZsGreen fluorescence) in tumour sections” value (p21waf1,cip1 promoter) was “large number of fluorescing cells”, the “T/C values (%) HCT116 colon” value ([6]; 10 mpk p.o. q.d. day 4 to 32) was 76% and the “T/C values (%) HCT116 colon” value ([6]; 20 mpk p.o. q.d. day 4 to 32) was 75%. For the same compound, the “T/C values (%) HCT116 colon” value ([6]; 30 mpk p.o. q.d. day 4 to 32) was 57% and the “T/C values (%) HCT116 colon” value ([6]; 40 mpk p.o. q.d. day 4 to 32) was 34%.
